Structure (SMILES) | melting point [°C]
Cc1ccc(C)c(CC(=O)Nc2c(-c3ccncc3)c(-c3ccc(F)cc3)nn2C)c1 [Example 51, 5-(2,5-Dimethylphenylacetylanino)-3-(4-fluorophenyl)-1-methyl-4-(4-pyridyl)pyrazole] | 179.9 to 185.1
COc1ccc(CC(=O)Nc2c(-c3ccncc3)c(-c3ccc(F)cc3)nn2C)c(OC)c1 [Example 52, 5-(2,4-Dimethoxyphenylacetylamino)-3-(4-fluorophenyl)-1-methyl-4-(4-pyridyl)pyrazole] | 179.3 to 182.2
COc1cc(CC(=O)Nc2c(-c3ccncc3)c(-c3ccc(F)cc3)nn2C)cc(OC)c1OC [Example 54, 3-(4-Fluorophenyl)-1-methyl-4-(4-pyridyl)-5-(3,4,5-trimethoxyphenylacetylamino)pyrazole] | 178.1 to 180.4
Cn1nc(-c2ccc(F)cc2)c(-c2ccncc2)c1NC(=O)Cc1ccccc1Cl [Example 56, 5-(2-Chlorophenylacetylamino)-3-(4-fluorophenyl)-1-methyl-4-(4-pyridyl)pyrazole] | 215.9 to 217.8
Cn1nc(-c2ccc(F)cc2)c(-c2ccncc2)c1NC(=O)Cc1ccccc1Br [Example 57, 5-(2-Bromophenylacetylamino)-3-(4-fluorophenyl)-1-methyl-4-(4-pyridyl)pyrazole] | 223.8 to 227.6
Cn1nc(-c2ccc(F)cc2)c(-c2ccncc2)c1NC(=O)Cc1ccc(Br)cc1 [Example 59, 5-(4-Bromophenylacetylamino)-3-(4-fluorophenyl)-1-methyl-4-(4-pyridyl)pyrazole] | 199.8 to 202.1
Cn1nc(-c2ccc(F)cc2)c(-c2ccncc2)c1NC(=O)Cc1cccc(F)c1 [Example 61, 3-(4-Fluorophenyl)-5-(3-fluorophenylacetylamino)-1-methyl-4-(4-pyridyl)pyrazole] | 196.9 to 199.1
COc1cccc(CC(=O)Nc2c(-c3ccncc3)c(-c3ccc(F)cc3)nn2C)c1 [Example 63, 3-(4-Fluorophenyl)-5-(3-methoxyphenylacetylamino)-1-methyl-4-(4-pyridyl)pyrazole] | 135 to 141.2
Cn1nc(-c2ccc(F)cc2)c(-c2ccncc2)c1NC(=O)Cc1ccccc1[N+](=O)[O-] [Example 65, 3-(4-Fluorophenyl)-1-methyl-5-(2-nitrophenylacetylamino)-4-(4-pyridyl)pyrazole] | 240.9 to 242.4
Cn1nc(-c2ccc(F)cc2)c(-c2ccncc2)c1NC(=O)Cc1ccccc1C(F)(F)F [Example 68, 3-(4-Fluorophenyl)-1-methyl-4-(4-pyridyl)-5-(2-trifluoromethylphenylacetylamino)pyrazole] | 242.7 to 244.5
COc1ccccc1CC(=O)Nc1c(-c2ccncc2)c(-c2ccc(F)cc2)nn1C [Example 69, 3-(4-Fluorophenyl)-5-(2-methoxyphenylacetylamino)-1-methyl-4-(4-pyridyl)pyrazole] | 206.8 to 209.2
Cn1nc(-c2ccc(F)cc2)c(-c2ccncc2)c1NC(=O)Cc1cccc(C(F)(F)F)c1 [Example 72, 3-(4-Fluorophenyl)-1-methyl-4-(4-pyridyl)-5-(3-trifluoromethylphenylacetylamino)pyrazole] | 193.4 to 195.8
CC(C(=O)Nc1c(-c2ccncc2)c(-c2ccc(F)cc2)nn1C)c1ccccc1 (stereo not shown) [Example 73, 3-(4-Fluorophenyl)-1-methyl-5-(2-phenylpropionylamino)-4-(4-pyridyl)pyrazole] | 210 to 214.9
Cn1nc(-c2ccc(F)cc2)c(-c2ccncc2)c1NC(=O)C(F)c1ccccc1 (stereo not drawn) [Example 74, 3-(4-Fluorophenyl)-5-(α-fluorophenylacetylamino)-1-methyl-4-(4-pyridyl)pyrazole] | 92.1 to 96.1
Cn1nc(-c2ccc(F)cc2)c(-c2ccncc2)c1NC(=O)Cc1ccccn1 [Example 76, 3-(4-Fluorophenyl)-1-methyl-4-(4-pyridyl)-5-(2-pyridylacetylamino)pyrazole] | 148.9 to 149.4
Cn1nc(-c2ccc(F)cc2)c(-c2ccncc2)c1NC(=O)Cc1cccnc1 [Example 77, 3-(4-Fluorophenyl)-1-methyl-4-(4-pyridyl)-5-(3-pyridylacetylamino)pyrazole] | 220 to 220.9
Cn1cccc1CC(=O)Nc1c(-c2ccncc2)c(-c2ccc(F)cc2)nn1C [Example 79, 3-(4-Fluorophenyl)-1-methyl-5-(1-methylpyrrol-2-ylacetylamino)-4-(4-pyridyl)pyrazole] | 165.1 to 168.1
Cn1nc(-c2ccc(F)cc2)c(-c2ccncc2)c1NC(=O)Cc1ccsc1 [Example 80, 3-(4-Fluorophenyl)-1-methyl-4-(4-pyridyl)-5-(3-thienylacetylamino)pyrazole] | 151.9 to 154.6
Cn1nc(-c2ccc(F)cc2)c(-c2ccncc2)c1NC(=O)Cc1c[nH]c2ccccc12 [Example 82, 3-(4-Fluorophenyl)-5-(indol-3-ylacetylamino)-1-methyl-4-(4-pyridyl)pyrazole] | 66.9 to 68.8

Further lines, results first:

melting point [°C] | Structure (SMILES)
185.4 to 193.4 | COc1cccc(CC(=O)Nc2c(-c3ccncc3)c(-c3ccc(F)cc3)nn2C)c1OC [Example 53, 5-(2,3-Dimethoxyphenylacetylamino)-3-(4-fluorophenyl)-1-methyl-4-(4-pyridyl)pyrazole]
78.5 to 80.2 | Cn1nc(-c2ccc(F)cc2)c(-c2ccncc2)c1NC(=O)Cc1cccc(Br)c1 [Example 58, 5-(3-Bromophenylacetylamino)-3-(4-fluorophenyl)-1-methyl-4-(4-pyridyl)pyrazole]
196.8 to 198.1 | Cn1nc(-c2ccc(F)cc2)c(-c2ccncc2)c1NC(=O)Cc1ccccc1F [Example 60, 3-(4-Fluorophenyl)-5-(2-fluorophenylacetylamino)-1-methyl-4-(4-pyridyl)pyrazole]
217.3 to 219.7 | Cn1nc(-c2ccc(F)cc2)c(-c2ccncc2)c1NC(=O)Cc1ccc(F)cc1 [Example 62, 3-(4-Fluorophenyl)-5-(4-fluorophenylacetylamino)-1-methyl-4-(4-pyridyl)pyrazole]
172.3 to 176 | COc1ccc(CC(=O)Nc2c(-c3ccncc3)c(-c3ccc(F)cc3)nn2C)cc1 [Example 64, 3-(4-Fluorophenyl)-5-(4-methoxyphenylacetylamino)-1-methyl-4-(4-pyridyl)pyrazole]
197.6 to 200.5 | Cc1ccccc1CC(=O)Nc1c(-c2ccncc2)c(-c2ccc(F)cc2)nn1C [Example 67, 3-(4-Fluorophenyl)-1-methyl-5-(2-methylphenylacetylamino)-4-(4-pyridyl)pyrazole]
147.8 to 150.1 | Cn1nc(-c2ccc(F)cc2)c(-c2ccncc2)c1NC(=O)Cc1ccc(OCc2ccccc2)cc1 [Example 70, 5-(4-Benzyloxyphenylacetylamino)-3-(4-fluorophenyl)-1-methyl-4-(4-pyridyl)pyrazole]
182.5 to 184.7 | CSc1ccc(CC(=O)Nc2c(-c3ccncc3)c(-c3ccc(F)cc3)nn2C)cc1 [Example 71, 3-(4-Fluorophenyl)-1-methyl-5-(4-methylthiophenylacetyl-amino)-4-(4-pyridyl)pyrazole]
141.3 to 143.4 | Cn1nc(-c2ccc(F)cc2)c(-c2ccncc2)c1NC(=O)Cc1ccncc1 [Example 78, 3-(4-Fluorophenyl)-1-methyl-4-(4-pyridyl)-5-(4-pyridylacetylamino)pyrazole]

— patent publication US6511997B1, “Aminopyrazole derivatives” (Teikoku Hormone Mfg. Co., Ltd., priority 1998, dated 2003)
